# Test results as given in patent US9656017B2, “Infusion delivery devices and methods” (priority 2014, dated 2017).
# No end group written: not given here.
# What was measured:
# [1] = 24-hour plasma profiles of endogenous insulin and amylin in healthy adults, basal/bolus AUC analysis; format: in vivo, human; details: for In Vivo AUC pM × 24 hr / AUC: endogenous; for In Vivo AUC pM × 24 hr: molar; for AUC: human, in vivo, In Vivo AUC μg/L × 24 hr, corrected for molecular weight
# Description: This difference in bolus/basal ratios was quantified by estimating the AUCs of the basal and bolus components, which would reflect the 24-hour hormone exposures attributable to these components.
# Comparing AUCs results in the discovery that there is a striking difference between hormones with respect to the importance of bolus exposure compared to basal exposure, as summarized in Table 1. […] See the example in Table 1.
# Either this is background amylin expression which been reported in non-beta-cell tissues, or it is nonspecific background noise in the amylin assay. […] The same adjustment should also be made for any background insulin plasma levels.
# The following calculations are presented as an example of how appropriate amylin agonist doses can be determined. This insulin-dependent dosing can be achieved by calculating two separate components of pramlintide dosing: (1) the weight ratio of the daily basal component of amylin-to-insulin; and (2) the weight ratio of the daily bolus component of amylin-to-insulin.
# [2] = T1D patients, same immunometric assay (FIG. 1-D); cited from earlier work
# [3] = Post-injection plasma pramlintide levels for three subcutaneous doses compared with healthy plasma amylin profile; format: in vivo, human
# Description: How well do the recommended mealtime injections of pramlintide mimic the healthy plasma amylin profile? […] In the case of three meals per day, these doses would result in three large boluses of pramlintide that spike well above the levels of plasma amylin measured in healthy adults. FIG. 3 superimposes plasma levels of the three subcutaneous doses of pramlintide (FIG. 2) on the plasma amylin profile in healthy adults (FIG. 1).
# From an efficacy standpoint, the dose limiting effect of nausea caused by pramlintide plasma spikes reduces daily drug exposure below healthy plasma amylin exposure levels. Daily exposure to endogenous hormone and infused drug can be measured by calculating the areas under the curves (AUCs) in FIG. 3.
# test animals = details: treated test animals; e.g. marked hyperlactemia followed by hyperglycemia; cited from earlier work
# [4] = ex vivo gram AUC (bioavailability adjusted)
# [5] = in vivo gram AUC (molecular weight adjusted)
# [6] = plasma, healthy adults, based upon AUCs
molecule,measurement,setting,value
CC[C@H](C)[C@H](NC(=O)[C@H](C)NC(=O)CNC(=O)[C@H](Cc1ccccc1)NC(=O)[C@H](CC(N)=O)NC(=O)[C@H](CC(N)=O)NC(=O)[C@H](CO)NC(=O)[C@H](CO)NC(=O)[C@H](Cc1c[nH]cn1)NC(=O)[C@@H](NC(=O)[C@H](CC(C)C)NC(=O)[C@H](Cc1ccccc1)NC(=O)[C@H](CC(N)=O)NC(=O)[C@H](C)NC(=O)[C@H](CC(C)C)NC(=O)[C@H](CCCNC(=N)N)NC(=O)[C@H](CCC(N)=O)NC(=O)[C@@H](NC(=O)[C@H](C)NC(=O)[C@@H]1CSSC[C@H](NC(=O)[C@@H](N)CCCCN)C(=O)N[C@@H](CC(N)=O)C(=O)N[C@@H]([C@@H](C)O)C(=O)N[C@@H](C)C(=O)N[C@@H]([C@@H](C)O)C(=O)N1)[C@@H](C)O)C(C)C)C(=O)N[C@@H](CC(C)C)C(=O)N[C@@H](CO)C(=O)N[C@@H](CO)C(=O)N[C@H](C(=O)N[C@@H](CC(N)=O)C(=O)N[C@H](C(=O)NCC(=O)N[C@@H](CO)C(=O)N[C@@H](CC(N)=O)C(=O)N[C@H](C(=O)N[C@@H](Cc1ccc(O)cc1)C(N)=O)[C@@H](C)O)C(C)C)[C@@H](C)O [Amylin],In Vivo AUC pM × 24 hr,[1]; basal component,222.79 pM × 24 hr
same,In Vivo AUC pM × 24 hr,[1]; bolus component,135.19 pM × 24 hr
same,Basal Amylin/Insulin Ratio,[1]; [4],14.8%
same,Bolus Amylin/Insulin Ratio,[1]; [4],4.8%
same,plasma levels as % of insulin levels,"[1]; healthy adults, FIG. 8",less than 5%
same,AUC,[1]; basal component,0.88 ng·h/mL
same,AUC,[1]; bolus component,0.534 ng·h/mL
same,Basal Amylin/Insulin Ratio,[1]; [5],7.4%
same,Bolus Amylin/Insulin Ratio,[1]; [5],2.4%
same,Basal Amylin/Insulin Ratio,[1]; in vivo molar AUC,10.9%
same,Bolus Amylin/Insulin Ratio,[1]; in vivo molar AUC,3.5%
same,Basal as % Total,[1]; [6],62%
same,Bolus/Basal Ratio,[1]; [6],0.6
same,"plasma amylin, average",[2],1.6 pM
"CC[C@H](C)[C@H](NC(=O)[C@@H]1CCCN1C(=O)CNC(=O)[C@H](Cc1ccccc1)NC(=O)[C@H](CC(N)=O)NC(=O)[C@H](CC(N)=O)NC(=O)[C@H](CO)NC(=O)[C@H](CO)NC(=O)[C@H](Cc1c[nH]cn1)NC(=O)[C@@H](NC(=O)[C@H](CC(C)C)NC(=O)[C@H](Cc1ccccc1)NC(=O)[C@H](CC(N)=O)NC(=O)[C@H](C)NC(=O)[C@H](CC(C)C)NC(=O)[C@H](CCCNC(=N)N)NC(=O)[C@H](CCC(N)=O)NC(=O)[C@@H](NC(=O)[C@H](C)NC(=O)[C@@H]1CSSC[C@H](NC(=O)[C@@H](N)CCCCN)C(=O)N[C@@H](CC(N)=O)C(=O)N[C@@H]([C@@H](C)O)C(=O)N[C@@H](C)C(=O)N[C@@H]([C@@H](C)O)C(=O)N1)[C@@H](C)O)C(C)C)C(=O)N[C@@H](CC(C)C)C(=O)N1CCC[C@H]1C(=O)N1CCC[C@H]1C(=O)N[C@H](C(=O)N[C@@H](CC(N)=O)C(=O)N[C@H](C(=O)NCC(=O)N[C@@H](CO)C(=O)N[C@@H](CC(N)=O)C(=O)N[C@H](C(=O)N[C@@H](Cc1ccc(O)cc1)C(N)=O)[C@@H](C)O)C(C)C)[C@@H](C)O [pramlintide, 25,28,29Pro-h-amylin]","24-hour exposure (relative AUC, endogenous amylin = 100%)","[3]; 90 μg dose, three meals per day (FIG. 4)","achieves the healthy, 24-hour physiological exposure"
same,plasma levels relative to plasma amylin in healthy adults,"[3]; T1D patients, mealtime SC doses three times daily (FIG. 3)",supra-physiological (or pharmacological) plasma levels
same,amylin activity in vivo,test animals,show amylin activity in vivo
Arg18 Pro25 Pro28-h-amylin,amylin activity in vivo,test animals,show amylin activity in vivo
Arg18 Pro25 Pro 28-des-Lys1-h-amylin,amylin activity in vivo,test animals,show amylin activity in vivo
Pro25 Val26 Pro 28 Pro29-h-amylin,amylin activity in vivo,test animals,show amylin activity in vivo
"Pro28-h-amylin (KCNTATCATQRLANFLVHSSNNFGAILPSTNVGSNTY; ends and bridges not checked; cysteine pairing not given here; UniProt P10997 34-70, looked up, variant S28P) [amylin analogue]",amylin activity in vivo,test animals,show amylin activity in vivo
des-Lys1-h-amylin,amylin activity in vivo,test animals,show amylin activity in vivo
